# Key:
# [1] = system: LNCaP cells; test: Fluorescence imaging of bacteria-cell interaction, LNCaP cells; type: cell-based, human; settings: bacteria linked to duplex with Compound 105; 20 min, washed
# Method: (§1) Cells (15,000 cells/well) were seeded onto glass bottom culture dishes (MatTek) and allowed to adhere overnight. MDA-MB-435 cells were seeded in MEM medium supplemented with 5% charcoal dextran-stripped calf serum, 1% non-essential amino acids, 1% L-glutamine, and 1% penicillin/streptomycin. KB cells were plated in folate-depleted RPMI supplemented with 10% FBS and 1% penicillin/streptomycin while LNCaP were maintained in RPMI, 10% FBS, 1% L-glutamine, and 1% penicillin/streptomycin. Following day, medium was removed, rinsed thrice with PBS and then the cells were incubated with B-probes 1-4 (prepared by incubating His-bacteria with duplexes 1-4 at 500 nM concentration for 1 h at 25° C. followed by washing with PBS buffer) at 37° C., 5% CO2 in incubator for 20 min. Finally, the excess/unbound bacteria were gently washed off with PBS containing Ca^+2 and Mg^+2 (200 μL×3) and the cells were imaged using a fluorescence microscope with 60× objective lens. […]
# (§2) MDA-MB-435 cells, LNCaP and KB cells were maintained in their respective media as mentioned in the previous section. […] After 20 minutes, the unbound bacteria were gently washed off with PBS containing Ca^+2 and Mg^+2 (200 μL×3) and the cells were imaged using a fluorescence microscope and a 60× objective lens.
# [2] = system: MDA-MB-435 cells; test: Fluorescence imaging of bacteria-cell interaction, MDA-MB-435 cells; type: cell-based, human; settings: bacteria linked to duplex with Compound 105; 20 min, washed
# Method: as §1, §2
# [3] = system: His-tagged bacteria; test: Super-resolution (STORM) microscopy of decorated bacteria; type: cell-based, E. coli; settings: duplex with ODN-1; transverse cut
# Method: Super-resolution images were collected on a Vutara SR200 STORM (Bruker) microscope based on the single-molecule localization biplane technology. His-tagged bacteria was decorated with ODN-1:Compound 201 duplex according to the procedure described in above. The bacteria were imaged using 647 nm excitation laser and 405 nm activation laser in an imaging buffer composed of 5 mM cysteamine, oxygen scavengers (7 μM glucose oxidase and 56 nM catalase) in 50 mM Tris, 10 mM NaCl and 10% glucose at pH 8.0. Images were recorded using a 60×NA 1.2 water immersion objective (Olympus) and Evolve 512 EMCCD camera (Photometrics) with gain set at 50, frame rate at 50 Hz, and maximal power of 647 and 405 nm lasers set at 6 and 0.05 kW/cm^2, respectively. Total number of frames acquired was 8000. Data was analyzed by the Vutara SRX software.
# Methods: Due to the small size of bacteria, super resolution (SR) microscopy was used to visualize E. Coli 's membrane with super resolution (SR). This was achieved by combining ODN-1 with a commercially available ODN-2 (Cy5-ODN-2; Compound 201) bearing a Cy5 dye, which is compatible with stochastic optical reconstruction microscopy (STORM).
# [4] = target: Alexa 647-modified streptavidin (Streptomyces avidinii, UniProt P22629); test: Bacteria-streptavidin interaction; type: cell-based; settings: duplex with ODN-1 on His-tagged bacteria; Alexa-SA 500 nM, 1 h
# Method: His-tagged bacterial cells were decorated with a duplex consisting of ODN-1 and Compound 205 duplex according to a similar procedure described above. For binding with streptavidin, cells were incubated with Alexa-647 streptavidin conjugate (500 nM) in PBS×1 for 1 h, and after washing twice with PBS were imaged by fluorescent microscopy. The fluorescent signal was abolished when bacterial cells were treated with ODN-3 (3 μM) for 1 h. The control experiment was performed similarly using bacteria decorated with a duplex containing ODN-1 and the complementary strand.
# Methods: His-tagged E. coli were incubated with an ODN-1 molecule and afterwards with a biotin-ODN-2 molecule (Compound 205). Then, the cells were incubated with an Alexa 647-modified streptavidin (FIG. 5A). To verify specificity, the same experiment was performed with an ODN-2 molecule lacking biotin (FIG. 5A). Cells were then incubated with ODN-3 to detach ODN-2 from the cell membranes.
# [5] = system: E. coli expressing His-OmpC; test: Decorating bacteria with the oligonucleotides, fluorescence imaging; type: cell-based
# Method: (§3) E. coli K-12 strain KRX (Promega) was used for protein expression. Transformed bacteria with the different OmpC constructs (OmpC or His-OmpC) were cultured to saturation in LB medium supplemented with 100 μg/ml of ampicillin at 30° C. 40 μl of the pre-cultured cells were then diluted into 4 ml of fresh LB medium supplemented with ampicillin, and incubated until the OD600 reaches ˜0.6. Protein expression was then induced by the addition of 0.1% Rhamnose and 20 μM isopropyl-b-D-1-thiogalactopyranoside (IPTG) and cultures were allowed to grow at 30° C. for 18 h. Then, the bacterial cells were harvested by centrifugation at 6,000 g for 4 min.
# The bacterial cells (OmpC or His-OmpC) were collected by centrifugation at 6000 g for 4 min. The pellet was washed twice with PBS×1 buffer and resuspended in the same buffer to an OD600 of 0.3. […] Then the bacterial sample were washed twice with PBS, resuspended in 100 μl PBS and placed on a glass-bottom dish (P35G-1.5-14-C; MatTek) precoated with poly-1-lysine (Sigma Aldrich) and left to adhere for 1 h. Finally, the wells were washed vigorously with PBS three times and imaged using an Olympus IX51 fluorescent microscope. The samples were imaged using 60× or 100× objective lenses.
# [6] = system: Native bacteria (that lack His-tag); test: Decorating bacteria with the oligonucleotides, fluorescence imaging (native bacteria control); type: cell-based, E. coli; settings: native bacteria lacking His-OmpC; 500 nM with Ni (II)
# Method: as §3
# The bacterial cells (OmpC or His-OmpC) were collected by centrifugation at 6000 g for 4 min. The pellet was washed twice with PBS×1 buffer and resuspended in the same buffer to an OD600 of 0.3. To a 100 μl sample of the bacteria suspension, a preincubated sample of DNA (500 nM) and NiCl2 (2.5 μM) was added, and the cells were incubated at room temperature for 1 h. Then the bacterial sample were washed twice with PBS, resuspended in 100 μl PBS and placed on a glass-bottom dish (P35G-1.5-14-C; MatTek) precoated with poly-1-lysine (Sigma Aldrich) and left to adhere for 1 h. Finally, the wells were washed vigorously with PBS three times and imaged using an Olympus IX51 fluorescent microscope. The samples were imaged using 60× or 100× objective lenses.
# [7] = system: E. coli expressing His-OmpC; test: Treatment of the modified bacteria with EDTA; type: cell-based; settings: 10 mM EDTA, 1 h
# Method: Bacterial samples decorated with Compound 100 were incubated with various concentrations of EDTA (0, 5, 10 mM) for 1 h. Cells were then collected (6,000 g, 4 min) and washed twice with […] PBS buffer. Cells were resuspended in 100 μl PBS buffer and added to poly-1-lysine-coated slides for imaging.
# [8] = Adhesion of modified bacteria to the solid support; settings: duplex with ODN-1 on His-tagged bacteria; 15 min; control unmodified bacteria
# Method: A solution of (11-mercaptoundecyl)tetra(ethylene glycol)^9 (2 mM in ethanol) were added to the gold coated substrates and incubated for 2 h. After removing the solution, the slides were washed four times with ethanol. Bacteria samples decorated with a duplex consisting of Compound 102 and Compound 207 were washed twice with PBS, resuspended in 100 μl phosphate buffer (pH=3.8), and then incubated on gold surfaces for 15 min. The solution containing bacteria was removed, and the slides were rinsed three times with PBS, and twice with water. Finally, they were imaged using an Olympus IX51 microscope.
# Methods: His-tagged bacteria were decorated with a duplex assembled from ODN-1 and HS-ODN-2 (Compound 207), namely, an ODN-2 that is appended with a thiol group. HS is known to have high affinity to gold. In the following step, unmodified His-tagged bacteria and thiol-modified His-tagged bacteria (FIG. 6A) were incubated with a gold substrate that was previously passivated with (11-mercaptoundecyl)tetra(ethylene glycol) to prevent non-specific bacterial adhesion. Gold surfaces were observed after 15 min incubation. Cells were then incubated with ODN-3 to detach Compound 207 from bacteria membranes.
# Sequence of Alexa 647-modified streptavidin (P22629 25-183): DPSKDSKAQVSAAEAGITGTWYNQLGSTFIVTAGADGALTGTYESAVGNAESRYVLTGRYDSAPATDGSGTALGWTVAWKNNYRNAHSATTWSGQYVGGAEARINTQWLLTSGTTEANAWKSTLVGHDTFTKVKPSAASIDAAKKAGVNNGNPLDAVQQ
substance,measurement,setting,value
"Compound 230: alkyne modified FAM-labeled ODN2 lacking the CSP binder; SEQ ID NO. 6 (DNA TAGGATCAGGCAGCTATGACGTGAC; DNA, backbone not given here; FAM label and alkyne modification, further chemistry not fully specified)",fluorescent labeling of LNCaP cells,[1],no labeling was achieved
"Compound 220: alkyne modified Cy5-labeled ODN2 lacking the CSP binder; SEQ ID NO. 6 (DNA TAGGATCAGGCAGCTATGACGTGAC; DNA, backbone not given here; Cy5 label and alkyne modification, further chemistry not fully specified)",fluorescent labeling of MDA-MB-435 cells,[2],no labeling was achieved
"Compound 201: commercially available ODN-2 bearing a Cy5 dye; SEQ ID NO. 6 (TAGGATCAGGCAGCTATGACGTGAC; DNA, backbone and methylation of C not given here; Cy5 dye attached, commercially available)",localisation of the label on bacteria (STORM),[3],only the outer membrane of the bacteria is labeled
"Compound 205: biotin-ODN-2 molecule; SEQ ID NO. 6 (TAGGATCAGGCAGCTATGACGTGAC; DNA, backbone and methylation of C not given here; biotin attached)",fluorescence of decorated bacteria after incubation with Alexa 647-modified streptavidin,[4],became fluorescent
"Compound 100: X-ODN-1 with tri-NTA His-tag binder, appended with a Cy5 dye; ODN sequence SEQ ID NO. 1 (GCGGCGAGGCAGC; DNA, backbone and methylation of C not given here; Cy5 dye and tri-NTA His-tag binder attached)",fluorescent decoration of bacteria,[5]; 500 nM in the absence of nickel ions,No fluorescence
same,fluorescent decoration of bacteria,[5]; 500 nM with Ni (II),successfully decorated
same,fluorescent decoration of bacteria,[6],No fluorescence
same,removal from the cell surface by EDTA,[7],completely removed
"Compound 207: ODN-2 that is appended with a thiol group; SEQ ID NO. 6 (TAGGATCAGGCAGCTATGACGTGAC; DNA, backbone and methylation of C not given here; thiol group appended)",attachment of thiol-modified bacteria to the gold substrate compared with the control,[8],about 8.5 fold

# From patent publication US20240368583A1, “DNA CONSTRUCTS, RECOMBINANT CELLS COMPRISING THEREOF, BACTERIAL PROBES, METHODS FOR THEIR PREPARATION, AND METHOD OF USING THEREOF” (YEDA RESEARCH AND DEVELOPMENT CO. LTD., priority 2019, published 2024)
